Our source for the Bliss excess values is the supplement of paper PMC11061612.

Assay in all cases: Bliss excess, mean over the matrix (fraction); higher = more synergy
In assay [1] the test system is SLVL (B-Cell Non-Hodgkin's Lymphoma). In a few lines: (§1)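 Cell lines in DMEM/F12 or RPMI with 10% FBS were plated in 1536-well plates, held 24 hours at 37°C, 5% CO2, then given two-drug dose matrices for 72 hours (DMSO typically 0.2%). Viability was read by CellTiter-Glo 2.0 luminescence and scaled as inhibition from 0 (vehicle wells) to 1 (blank wells). Combination Emax is the second-highest inhibition in the matrix; Bliss excess is observed combination effect minus expected EA + EB − EA·EB, EA and EB being single-agent effects.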

For a further assay, the system named is SK-MEL-1 (Melanoma). In a few lines:
as §1

A further assay concerns D-392MG (Glioblastoma). The method in brief:
as §1

For assay [2], the system named is MEG-01 (Chronic Myelogenous Leukemia). In a few lines: as §1
In a further assay the test system is EW-22 (Ewing's Sarcoma). The method in brief:
as §1

Assay [3] deals with SW48 (Colorectal Carcinoma). The method in brief: as §1
In assay [4] the test system is YT (Other Blood Carcinomas). In a few lines:
as §1

The test system of assay [5] is SW948 (Colorectal Carcinoma). In a few lines: as §1
The subject of assay [6] is BICR78 (Oral Cavity Carcinoma). The method in brief: as §1
Assay [7] has as its system TC-YIK (Other Solid Carcinomas). The method in brief: as §1
The subject of assay [8] is HCT-116 (Colorectal Carcinoma). The method in brief:
as §1

Assay [9] relates to NOMO-1 (Acute Myeloid Leukemia). In a few lines:
as §1

The next assay deals with CS1 (Chondrosarcoma). In a few lines:
as §1

The test system of assay [10] is SK-UT-1 (Other Solid Carcinomas). The method in brief:
as §1

The next assay relates to MSTO-211H (Mesothelioma). In a few lines:
as §1

Assay [11] has as its system CAL-39 (Other Solid Carcinomas). The method in brief:
as §1

In assay [12] the test system is DOK (Oral Cavity Carcinoma). The method in brief:
as §1

Assay [13] concerns WSU-DLCL2 (B-Cell Non-Hodgkin's Lymphoma). In a few lines: as §1
The next assay deals with H4 (Low Grade Glioma). The method in brief:
as §1

Assay [14] has as its system P31-FUJ (Acute Myeloid Leukemia). In a few lines: as §1

Take `N#Cc1cnc(Nc2cc(NC[C@H]3CNCCO3)c(C(F)(F)F)cn2)cn1` [SRA737] + Nc1ccn([C@@H]2O[C@H](CO)[C@@H](O)C2(F)F)c(=O)n1 [Gemcitabine] (first compound max 10 µM, 7x7, partner max 0.3 µM): the Bliss excess was 0.0004 in assay [1]; 0.0048 with SK-MEL-1 (Melanoma); 0.0579 with D-392MG (Glioblastoma); -0.0324 in assay [2]; -0.0202 with EW-22 (Ewing's Sarcoma); 0.0107 in assay [3]. Besides, the Bliss excess was 0.0694 in assay [4]; 0.079 in assay [5]; 0.068 in assay [6]; -0.0605 in assay [7]; 0.0063 in assay [8]; -0.0169 in assay [9]. For the same compound, the Bliss excess in the assay on CS1 (Chondrosarcoma) is 0.0679; in assay [10], 0.0162; with MSTO-211H (Mesothelioma) it was -0.0082; in assay [11], 0.0461; in [12] it was 0.0191; in assay [13], 0.111. For the same compound, the figures for the Bliss excess (in the assay on H4 (Low Grade Glioma); in assay [14]) were 0.0511 and 0.057, respectively.

For the compound `N#Cc1cnc(Nc2cc(NC[C@H]3CNCCO3)c(C(F)(F)F)cn2)cn1` [SRA737] + O=c1[nH]cc(F)c(=O)[nH]1 [5-Fluorouracil] (first compound max 10 µM, 7x7, partner max 20 µM), the Bliss excess is -0.0551 in [1]; -0.0178 in the assay with SK-MEL-1 (Melanoma); -0.0369 in the assay with D-392MG (Glioblastoma); -0.0518 in assay [2]; 0.0416 in the assay with EW-22 (Ewing's Sarcoma); -0.0588 in [3]. Further, the Bliss excess was 0.0012 in assay [4]; -0.0314 in assay [5]; 0.0904 in assay [6]; 0.0119 in assay [7]; 0.0445 in [8]; -0.0007 in assay [9]. Further, the Bliss excess in the assay with CS1 (Chondrosarcoma) is -0.0251; in [10], -0.0052; with MSTO-211H (Mesothelioma), 0.0301; in [11], 0.0175; in assay [12], 0.0382; in assay [13], 0.114. The Bliss excess was -0.0189 in the assay with H4 (Low Grade Glioma) and -0.0034 in assay [14].

Regarding `CC1(C)CCC(CN2CCN(c3ccc(C(=O)NS(=O)(=O)c4ccc(NCC5CCOCC5)c([N+](=O)[O-])c4)c(Oc4cnc5[nH]ccc5c4)c3)CC2)=C(c2ccc(Cl)cc2)C1` [Venetoclax] + CS(=O)(=O)CCNCc1ccc(-c2ccc3ncnc(Nc4ccc(OCc5cccc(F)c5)c(Cl)c4)c3c2)o1 [Lapatinib] (first compound max 1 µM, 7x7, partner max 10 µM), the Bliss excess in assay [1] is 0.017; with SK-MEL-1 (Melanoma) it was 0.0097; in the assay with D-392MG (Glioblastoma), -0.0732; in assay [2], -0.0101; in the assay with EW-22 (Ewing's Sarcoma) it was 0.0031; in [3], 0.0163. In addition, the Bliss excess was 0.0123 in [4]; -0.0407 in [5]; -0.0451 in [6]; -0.0035 in assay [7]; -0.0369 in assay [8]; 0.0105 in assay [9]. Also, the Bliss excess was -0.0662 in the assay with CS1 (Chondrosarcoma); -0.0286 in assay [10]; -0.019 in the assay with MSTO-211H (Mesothelioma); -0.0062 in [11]; -0.0301 in assay [12]; 0.0902 in [13]. Further, the Bliss excess is -0.0188 in the assay on H4 (Low Grade Glioma) and 0.0811 in [14].
